Measurements: patent US7105652B2, “Human tumor suppressor gene” (Garvan Institute of Medical Research, priority 1997, dated 2006)
Entries after “also recorded” stand apart in the source; their conditions may differ. Numbered stars: 1 amine (or outer) side, 2 acyl side, 3 side chain; on linkers, the order of the positions; unused ones are H or OH. Bridge positions count the residues as written; N and C are the ends. Square brackets hold non-standard residues; d marks the D form. Peptide text beside a SMILES is read from it. I, II: the chains in the order shown. Actinocin(9to1) = Cc1c2oc3c(C)ccc(C(=O)[*:1])c3nc-2c(C(=O)[*:2])c(N)c1=O; NMeV = CN[C@H](C(=O)O)C(C)C; Sar = CNCC(=O)O

Tests used:
[1] = test system: EDD mRNA; test: Northern analysis of EDD mRNA in progestin-treated T-47D cells; type: cell-based, human
Method: (§1) The sources and maintenance of the human breast cancer and normal cell lines used were as described previously (12, 22), as were tissue culture experiments (12). Briefly, progestin (ORG 2058, 10 nM) and/or cycloheximide (20 μg/ml) or actinomycin D (5 μg/ml) was added to the medium and control flasks received the same volume of vehicle alone. To obtain RNA for differential display, cells were grown in insulin-supplemented serum-free medium and treated for 3 h with ORG 2058 or ethanol vehicle. Subsequent progestin stimulation experiments were carried out in medium containing 5% charcoal-stripped fetal calf serum without insulin.
Cells harvested from duplicate 150 cm^2 flasks were pooled, RNA extracted by a guanidinium-isothiocyanate-cesium chloride procedure and Northern analysis was performed as previously described with 20 μg of total RNA per lane (3, 23). The membranes were hybridized overnight (50° C.) with probes labelled with [a-^32P]dCTP (Amersham Australia Pty Ltd) using a Prime-a-Gene labelling kit (Promega Corp., Sydney, Australia). The membranes were washed at a highest stringency of 0.2 ¥ SSC (30 mM NaCl, 3 minN sodium citrate [pH 7.0])/1% sodium dodecyl sulfate at 65° C. and exposed to Kodak X-OMAT or BIOMAX film at −70° C. Human multiple tissue Northern blots or RNA Master blot (CLONTECH Laboratories Inc., Palo Alto, Calif.) were hybridized under conditions recommended by the manufacturer. The MRNA abundance was quantitated by densitometric analysis of autoradiographs using Molecular
Dynamics Densitometer and software (Molecular Dynamics, Sunnyvale, Calif.). The accuracy of loading was estimated by re-hybridizing membranes with a [g-^32P]ATP end-labelled oligonucleotide complementary to 18S rRNA (24, 25).

[2] = test system: T-47D cells; details: ORG 2058, same conditions, reference (3); cited from earlier work
[3] = test system: EDD; test: Differential display RT-PCR of T-47D cells treated with ORG 2058; type: cell-based, human; details: ORG 2058 for 3 h
Method: as §1
Differential display was carried out as previously described (11) using a Heiroglyph mRNA Profile Kit No. 1 (Genomyx Corporation, Foster City, Calif.) and recommended protocol. First strand cDNA synthesis was carried out in 96-well format 0.2 ml thin walled tubes. Typically 200 ng total RNA from T-47D cells treated with the synthetic progestin ORG 2058 for 3 h or from control T-47D cells was reverse transcribed with Expand Reverse Transcriptase enzyme (Boehringer Mannheim Pty Ltd, Castle Hill, Australia) following annealing with 4 pmol anchored primer (5′[…]12AC (SEQ ID NO:6)). […] The PCR products were denatured and separated on a 4.5% denaturing polyacrylamide gel at 800 v for 16 h using the Genomyx Long Read Sequencing System reagents and apparatus. […]

[4] = molecular target: T1, GST-ubiquitin fusion protein (Homo sapiens, UniProt P0CG47); test: Ubiquitin-binding assay (thiol ester formation); type: biochemical; details: in vitro translated 35S-labelled protein, absence of DTT; abolished by 100 mM DTT
T1 construct: purified GST-ubiquitin fusion protein
Method: [^35S]-labelled in vitro translated truncated (˜100 kDa) or full length protein was tested for its ability to bind ubiquitin by incubating 5 μl translation reaction with or without 5 μg purified GST protein or GST-ubiquitin fusion protein for 10 min at 25° C. […] Reactions were terminated by incubating the mixtures in either SDS-sample buffer containing 100 mM DTT at 95° C. for 5 min or in SDS-sample buffer containing 4 M urea instead of DTT at 25° C. for 20 min. Samples were resolved by SDS-PAGE through 6% or 7% gels followed by drying and autoradiography.

Molecule: Cc1c2oc3c(C)ccc(C(=O)N[C@@H]4C(=O)N[C@H](C(C)C)C(=O)N5CCC[C@H]5C(=O)N(C)CC(=O)N(C)[C@@H](C(C)C)C(=O)O[C@@H]4C)c3nc-2c(C(=O)N[C@@H]2C(=O)N[C@H](C(C)C)C(=O)N3CCC[C@H]3C(=O)N(C)CC(=O)N(C)[C@@H](C(C)C)C(=O)O[C@@H]2C)c(N)c1=O [actinomycin D, Actinomycin D] (I: T[dV]P[Sar][NMeV] / II: T[dV]P[Sar][NMeV]; ester I:1-I:C, II:1-II:C; linker I:N-II:N via Actinocin(9to1))
- effect on ORG 2058 induction of EDD mRNA levels ([1]; 10 nM ORG 2058 with actinomycin D (5 μg/ml), 3 h): blocked

Molecule: C[C@@H]1C[C@@H]([C@H](O)CC2CC(=O)NC(=O)C2)C(=O)[C@@H](C)C1 [cycloheximide, Cycloheximide]
- effect on ORG 2058 induction of EDD mRNA levels ([1]; 10 nM ORG 2058 with cycloheximide (20 μg/ml), 1 h): prevented

Molecule: CCC1CC2C3CCC4=CC(=O)CCC4C3CCC2(C)C1C(=O)CO (stereo not drawn) [ORG 2058, 16a-ethyl-21-hydroxy-19-norpregn-4-en-3,20-dione]
- time of increase in the S phase fraction [2]: 12 to 14 h
- abundance of EDD DD-PCR product, treated versus control [3]: more abundant in treated samples than in control samples; also recorded: present at a higher level
- maximal EDD mRNA levels above control ([1]; progestin (ORG 2058), observed at 6 h, transient): 3 to 4 fold

B1: truncated EDD: 890 amino acid truncated EDD protein, aa 1910 to aa 2799, carboxyl terminus with HECT domain (protein)
chain: MMSARGDFLNYALSLMRSHNDEHSDVLPVLDVCSLKHVAYVFQALIYWIKAMNQQTTLDTPQLERKRTRELLELGIDNEDSEHENDDDTNQSATLNDKDDDSLPAETGQNHPFFRRSDSMTFLGCIPPNPFEVPLAEAIPLADQPHLLQPNARKEDLFGRPSQGLYSSSASSGKCLMEVTVDRNCLEVLPTKMSYAANLKNVMNMQNRQKKEGEEQPVLPEETESSKPGPSAHDLAAQLKSSLLAEIGLTESEGPPLTSFRPQCSFMGMVISHDMLLGRWRLSLELFGRVFMEDVGAEPGSILTELGGFEVKESKFRREMEKLRNQQSRDLSLEVDRDRDLLIQQTMRQLNNHFGRRCATTPMAVHRVKVTFKDEPGEGSGVARSFYTAIAQAFLSNEKLPNLECIQNANKGTHTSLMQRLRNRGERDREREREREMRRSSGLRAGSRRDRDRDFRRQLSIDTRPFRPASEGNPSDDPEPLPAHRQALGERLYPRVQAMQPAFASKITGMLLELSPAQLLLLLASEDSLRARVDEAMELIIAHGRENGADSILDLGLVDSSEKVQQENRKRHGSSRSVVDMDLDDTDDGDDNAPLFYQPGKRGFYTPRPGKNTEARLNCFRNIGRILGLCLLQNELCPITLNRHVIKVLLGRKVNWHDFAFFDPVMYESLRQLILASQSSDADAVFSAMDLAFAIDLCKEEGGGQVELIPNGVNIPVTPQNVYEYVRKYAEHRMLVVAEQPLHAMRKGLLDVLPKNSLEDLTAEDFRLLVNGCGEVNVQMLISFTSFNDESGENAEKLLQFKRWFWSIVEKMSMTERQDLVYFWTSSPSLPASEEGFQPMPSITIRPPDDQHLPTANTCISRLYVPLYSSKQILKQKLLLAIKTKNFGFV
- formation of GST-ubiquitin / ubiquitin thioester conjugate [4]: an additional higher molecular mass protein band was observed
